Source: patent publication US8143403B2 (Bristol-Myers Squibb Company, priority 2008, dated 2012)
Marks after values point to notes of the source that are not given here. No end group written: not given here.

Experiments:
[1] = test system: i.v. hαCGRP-induced increase in middle meningeal artery diameter and facial blood flow; experiment: Validation of facial blood flow as surrogate for intracranial artery dilation in the rat; type: in vivo; conditions: pretreatment, n=5 rats
[2] = test system: CGRP-induced increase in laser Doppler facial blood flow; experiment: Inhibition of CGRP-induced increase in laser Doppler facial blood flow in non-human primate; type: in vivo, common marmoset (Callithrix jacchus)
Description: FIG. 4. […] Data are peak % change from baseline±sem, with each animal serving as its own control.
Saturation/Scatchard Analysis. […] Saturation data were analyzed using a one site binding equation to estimate apparent equilibrium dissociation constant (Kd) and the maximum number of binding sites (Bmax) (Prizm v4.0, Graphpad). […] Functional Antagonism/Schild analysis. Agonist stimulation of CGRP receptor complex leads to cyclic AMP (adenosine 3′5′-cyclic monophosphate) production via Gs-dependent activation of an adenylate cyclase (Juaneda C et al., TiPS, 2000; 21:432-438). Consequently, CGRP receptor antagonists inhibit CGRP-induced cyclic AMP formation in SK-N-MC cells which natively express the CGRP receptor complex (Doods H et al., Br J Pharmacol, 2000; 129(3):420-423). […] A Schild analysis format was used, which allowed investigation of the mechanism of antagonism. […] Various concentrations of CGRP were added and the cells were allowed to incubate 30 min at room temperature. The cells were lysed with lysis reagent and cAMP concentrations were determined by HTRF according to the manufacturer's instructions. A standard curve using known quantities of cAMP was evaluated in parallel to allow conversion of HTRF ratio to nM cAMP. The resulting curves were then evaluated using a Gaddum/Schild equation individually and with global fitting (Prizm v4.0, Graphpad). […] To obtain a global fit the following parameters were shared (top, bottom, logEC50, Hill slope and pA2) and all curves were fit simultaneously. […] Non-Terminal Method for Assessing In Vivo Efficacy of Small Molecule CGRP-Receptor Antagonists in Mammals Overview. […] Non-human primates (e.g., marmosets) are the only animals known to have human-like CGRP receptor pharmacology conferred by the presence of the specific amino acid residue (Trp74) in their RAMP1 sequence which is responsible for the phenotype of the human receptor (Mallee et al. J Biol Chem 2002 277:14294). Since current migraine models primarily use rats (Escott et al. Brain Res 1995 669:93; Williamson et al. Cephalalgia 1997 17:525), or are invasive, terminal procedures in primates (Doods et al. Br J Pharmacol 2000 129:420), a novel non-invasive, survival model in non-human primates for in vivo efficacy assessment of CGRP-receptor antagonists was developed. […] Peptide and small-molecule CGRP-receptor antagonists were used to validate the non-human primate model. […] Animals. Adult male and female common marmosets (Callithrix jacchus) purchased from Harlan and weighing 350-550 g served as subjects. Anesthesia & Surgical Preparation. Animals are anesthetized by isoflurane inhalation in an induction chamber (4-5% rapid induction, maintained with 1-2.5%; Solomon et al., 1999).

Substance: haCGRP(8-37): peptide antagonist, peptide fragment CGRP(8-37) (VTHRLAGLLSRSGGVVKNNFVPTNVGSKAF; ends and bridges not checked; UniProt P06881 90-119, looked up, fragment) [reference compound]
- inhibition of i.v. hαCGRP-induced increase in facial blood flow [1]: 50%
- inhibition of i.v. hαCGRP-induced increase in middle meningeal artery diameter [1]: 50%
- % Inhibition ([2]; 1 mg/kg i.v., pretreat 0 min, 15 min, hαCGRP 10 μg/kg i.v.): 87.2* %
- inhibition of i.v. CGRP-stimulated increases in primate facial blood flow ([2]; pre-treatment): dose-dependently inhibited
